What was measured:
[1] = Antagonist activity at DOR in CD1 mouse vas deferens assessed as pEC50 for DPDPE-induced inhibition of EFS-evoked contractions at 1 uM incubated for 60 mins
[2] = Agonist activity at MOR in Dunkin-Hartley guinea pig ileum assessed as inhibition of EFS-induced contractions incubated for 60 mins

Structure (SMILES) | EC50 [1] [µM] | EC50 [2] [µM]
C[C@H]1[C@H]2Cc3ccc(O)cc3[C@]1(C)CCN2CCC(=O)Nc1ccccc1 | 126 | 
C[C@H]1[C@H]2Cc3ccc(O)cc3[C@]1(C)CCN2CCC(=O)Nc1cccc2ccccc12 | 7.94 | 50100

Reference: BindingDB's records for doi:10.1016/j.bmc.2016.05.005 (University of Catania, 2016)
